Results on 1 molecule are retold here after patent US20250281466A1, “USE OF CLOPIDOGREL OR COMBINATIONS THEREOF TO TREAT AMYOTROPHIC LATERAL SCLEROSIS, DAMAGES CAUSED BY THE NORMAL AGING PROCESS, NERVE INJURIES, MUSCULAR DYSTROPHY, STRENUOUS PHYSICAL ACTIVITIES AND OTHER CONDITIONS THAT AFFECT SYNAPSES AS WELL AS SKELETAL MUSCLES” (Brown University, priority 2024, published 2025).

Where two headings read alike, the source gives them in different places.

In data set [1] the test system is mouse model of ALS. The text has this: FIGS. 11A-11F provide a summary of Clopidogrel treatment on mouse model of ALS. FIG. 11A (control) and FIG. 11B provide images showing neuromuscular junctions (NMJs) treated with vehicle (control) and Clopidogrel. Blue depicts axons and Magenta muscle region in contact with motor axons.
FIGS. 11A-11F provide a summary of Clopidogrel treatment on a mouse model of ALS. FIG. 11A (control, left) and FIG. 11B (Clopidogrel, right) provide images showing neuromuscular junctions (NMJs) treated with vehicle (control, left) and Clopidogrel (right). Blue (or grey in upper panels) depicts axons and Magenta (grey in lower panels) muscle region in contact with motor axons.

The conditions of data set [2]: general statement, no test described; cited from earlier work.
Data set [3] relates to SOD1^G93A mice. Particulars: SOD1^G93A mice examined at 15 and 30 days after treatment starting at 90 days of age, compared to vehicle (FIG. 5B).
Description: NeuroScore involved observing the ability of mice to control the position and mobility of both hindlimbs independently of each other. In this 0-4 point scoring system, 0 represents normal control and 4 represents complete loss of the ability to command hindlimb movement (FIG. 5A).
We also assessed disease progression in mice using the neurological scoring system (NeuroScore) which is used to determine disease stage in SOD1^G93A mice. NeuroScore involved observing the ability of mice to control the position and mobility of both hindlimbs independently of each other. In this 0-4 point scoring system, 0 represents normal control and 4 represents complete loss of the ability to command hindlimb movement (for example, see FIG. 5A).
Data set [4] has as its system SOD1^G93A mice. Particulars: P120 SOD1^G93A mice. The text has this: In FIGS. 4A-4H, DigiGait™ was used for gate analysis of P120 SOD1^G93A mice treated with Vehicle or the P2Y12 antagonist Clopidogrel. […] Scale bar=10 μm.
To this end, before sacrificing mice for histological analysis, we examined the gait patterns of SOD1^G93A mice treated with Clopidogrel and vehicle using the DigiGait™ system.

Data set [5] has as its system SOD1^G93A mice. The conditions noted are these: EDL of P120 SOD1^G93A mice, versus vehicle, *p<0.05, n=7-8. On the procedure: (§1) We treated SOD1^G93A mice with either vehicle or Clopidogrel (1 mg/kg) for 30 days starting at symptom onset (90 days old). […] The EDL and TA are hindlimb muscles mostly composed of fast-twitch fibers that play similar function in leg movement. These muscles are adjacent to each other and are affected early in ALS38.
Discussion of Research Design (current) and Experimental Methods: Currently Disclosed Aim 1A: Identify the optimal Clopidogrel dose to protect NMJs from ALS.

For data set [6], the system named is mice. The conditions noted are these: general statement before a planned dose pilot study; cited from earlier work.
For data set [7], the system named is SOD1^G93A mice. The conditions noted are these: Clopidogrel 1 mg/kg for 30 days from 90 days old, versus vehicle (FIG. 3C). The protocol:
as §1

Consider `COC(=O)[C@H](c1ccccc1Cl)N1CCc2sccc2C1` [Clopidogrel], for which the “intactness of muscle regions in contact with motor axons (NMJ)” value in data set [1] (versus vehicle control (FIG. 11C, 11E)) is recorded as “more intact”. The “number of denervated NMJs” value in data set [1] (versus vehicle control (FIG. 11D, 11F)) was “reduces the number of denervated NMJs”. Besides, the “crossing of the blood-brain-barrier (BBB)” value in data set [2] is “does not cross the blood-brain-barrier”. Moreover, the “disease progression by NeuroScore (0-4 point scoring system)” value in data set [3] is reported as “the disease progressed slower”. Also, the “stride frequency (DigiGait)” value in data set [4] (compared to vehicle, n=3-5 (FIG. 4A, 4B)) is “increases stride frequency”. Moreover, the “swing duration (DigiGait)” value in data set [4] (compared to vehicle, n=3-5 (FIG. 4C, 4D)) is reported as “reduces swing duration”. For the same molecule, the “percent brake of stride (DigiGait)” value in data set [4] (forelimb and hindlimb, versus vehicle (FIG. 4G, 4H)) is reported as “increased”. Besides, the “brake time (DigiGait)” value in data set [4] (versus vehicle (FIG. 4E, 4F)) is reported as “increased the brake time”. In addition, the “fully denervated NMJs (analysis of NMJ innervation, FIG. 3B)” value in data set [5] was “fewer fully denervated NMJs”. In data set [6], the “side effects in mice” value is “lethargy, weight loss and internal bleeding”. Further, the figures for the TA muscle mass entry in data set [7] and in data set [7] (listed as clopidogrel) were “significantly preserved the overall mass of the tibialis anterior (TA) muscle” and “higher TA muscle mass”, respectively.
